One may read the IC50 as the concentration that inhibits the measured activity by half. The term % Inhibition denotes the change of the read-out against control, counted positive when it falls. As usually defined, the inhibition is the drop in the measured response relative to a control, in per cent.

SMILES strings stand for the structures. Several values for one entry are separate records, joined by “and”; a condition that tells them apart may be missing. Identical values can stand only once. Like-named read-outs stand apart in the source and are kept apart here.

From patent publication US8394971B2, “Indole derivatives as selective androgen receptor modulators (SARMS)” (Janssen Pharmaceutica N.V., priority 2004, dated 2013) come the findings set out here.

Assay [1] addresses T1, androgen receptor LBD (Panvera) (Rattus norvegicus, UniProt P15207).
T1 construct: 5 pmol androgen receptor LBD (Panvera); purchased Panvera
T1 sequence (P15207 651-882 limits assumed): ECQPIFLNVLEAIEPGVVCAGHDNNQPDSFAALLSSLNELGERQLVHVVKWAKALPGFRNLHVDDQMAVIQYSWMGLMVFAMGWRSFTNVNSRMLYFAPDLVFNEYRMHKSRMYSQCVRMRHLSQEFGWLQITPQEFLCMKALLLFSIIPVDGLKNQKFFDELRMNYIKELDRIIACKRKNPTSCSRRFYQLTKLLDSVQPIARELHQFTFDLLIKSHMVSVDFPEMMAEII
The experiment in a line: Androgen Receptor Filtration Binding Assay (PANVERA). Here is the method: (§1) The assay was run on a 96 well plate with each well filled with a total reaction volume 150 μL, of a solution containing 5 pmol androgen receptor LBD (Panvera) or 30 μL of freshly prepared rat cytosol, 0.5 nM [^3H] […] (TED buffer contains 10 mM Tris.HCl pH 7.4, 1 mM sodium molybdate, 1.5 mM EDTA, 1 mM DTT and 10% (v/v) glycerol.)
(§2) On day one, the solution containing receptor, tracer and TED buffer was distributed into a 96 well plate. Diluted test compound or control vehicle was then added to individual wells and the plate incubated at 4° C. overnight.
(§3) On day two, to each well was then added 20 μL human γ-globulin (ICN 823102), prepared at 25 mg/ml in TE pH 8.0, and 55 μL 40% polyethylene glycol 8000 (JT Baker U222-08), prepared in TE pH 8.0. The plate was incubated at 4° C. for 60 minutes. During incubation, the harvester was rinsed with 10% PEG 8000, prepared in TE pH 8.0, and a GF/C Unifilter-96 was pre-wet with 10% PEG. The binding reaction was filtered, the retentate was washed three times with 10% PEG and dried under vacuum for a couple of minutes, then dried at 50° C. for 5 min and the plate was bottom sealed. Next, 25 μL of Microscint-20 (Packard) was added to the filter wells and the plate was top sealed. The plate wells were then counted on a TopCount (Packard).
Counts per well were measured and IC50s determined by linear regression.

In assay [2] the target is T2, androgen receptor (rat ventral prostate cytosol) (Rattus norvegicus, UniProt P15207).
T2 construct: from tissue; host or cells: ventral prostate of castrated male Sprague Dawley or Wistar rats, cytosol
T2 sequence (P15207 1-902): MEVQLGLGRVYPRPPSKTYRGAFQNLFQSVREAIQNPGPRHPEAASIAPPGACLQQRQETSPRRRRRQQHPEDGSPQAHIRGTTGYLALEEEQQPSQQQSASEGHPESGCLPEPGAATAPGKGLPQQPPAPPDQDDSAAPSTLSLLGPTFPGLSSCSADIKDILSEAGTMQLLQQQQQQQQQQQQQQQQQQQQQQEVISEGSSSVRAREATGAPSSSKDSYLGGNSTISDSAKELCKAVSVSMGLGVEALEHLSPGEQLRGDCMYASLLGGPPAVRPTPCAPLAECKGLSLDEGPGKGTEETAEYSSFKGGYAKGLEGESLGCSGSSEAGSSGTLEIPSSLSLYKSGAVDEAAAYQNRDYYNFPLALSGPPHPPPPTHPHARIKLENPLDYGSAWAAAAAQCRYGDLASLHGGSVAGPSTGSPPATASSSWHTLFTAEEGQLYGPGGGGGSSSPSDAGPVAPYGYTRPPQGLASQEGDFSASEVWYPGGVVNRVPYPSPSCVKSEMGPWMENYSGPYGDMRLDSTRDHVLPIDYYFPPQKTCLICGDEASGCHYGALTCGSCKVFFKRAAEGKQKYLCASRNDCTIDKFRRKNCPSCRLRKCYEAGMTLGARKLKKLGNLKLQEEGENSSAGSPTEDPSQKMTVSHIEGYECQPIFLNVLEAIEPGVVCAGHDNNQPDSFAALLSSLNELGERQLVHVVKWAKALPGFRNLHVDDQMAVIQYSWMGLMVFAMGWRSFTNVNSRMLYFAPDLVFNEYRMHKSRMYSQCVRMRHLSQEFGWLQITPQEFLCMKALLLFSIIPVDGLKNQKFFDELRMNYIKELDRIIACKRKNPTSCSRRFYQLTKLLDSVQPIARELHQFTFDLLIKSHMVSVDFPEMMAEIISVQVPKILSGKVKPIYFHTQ
The experiment in a line: Androgen Receptor Binding Using Rat Ventral Prostate Cytosol. To be noted: for IC50: read-out: IC50. Here is the method:
as §1, §2, §3
Rat Prostate Cytosol Preparation:
Male Sprague Dawley or Wistar rats (Charles River, 200-300 g) were used for each preparation. The day before preparing the cytosol, the rats were castrated using standard surgical procedures.
The rats were euthanized by carbon dioxide asphyxiation. The rat prostates were quickly removed and placed on ice in pre-chilled, pre-weighed 50 mL plastic tubes. No more than five prostates were placed into one tube. The tubes were then weighed and the prostate tissue wet weights calculated.
To the chilled prostate tissue was then added […] of chilled homogenization buffer. The homogenization buffer was freshly prepared by mixing 10 mM Tris.HCl, pH 7.4, 1 mM sodium molybdate, 1.5 mM EDTA, 1 mM dithiothreitol, 10% (v/v) glycerol and 1% protease inhibitor cocktail (Sigma P 8340).
The prostate tissue was homogenized in a cold room using a pre-chilled Polytron PT3000 homogenizer (Brinkmann). Homogenization was performed at a speed setting of 20, three times for 10 sec bursts. The tubes containing the prostate tissue was kept on ice while homogenizing. The homogenate was allowed to rest on ice for 20 sec between bursts.
The homogenate was then placed into pre-chilled 3 mL polycarbonate ultracentrifuge tubes and centrifuged in the TLA-100 rotor of a TL-100 ultracentrifuge for 12 min at 100,000 rpm at 4° C. The resulting supernatant was stored in 1 mL aliquots at −80° C. until needed.
Binding to the androgen receptor was determined according to the protocol described in Example 86 using the above prepared rat cytosol.
% Inhibition was determined by testing dilutions of the test compound (usually duplicates of 10 μM) in the binding assay. Counts per well were measured and percents of inhibition determined. […] Counts per well were measured and IC50s determined by linear regression.

[3] abbreviates: Androgen Receptor Binding (Panvera), 0.5 nM [3H] R1881 tracer.
[4] abbreviates: rat cytosol, concentration 1000 nM.

With `CC(O)(CSC1CCCCC1)c1cc2nc(C(F)(F)F)ccc2[nH]1` (racemic) [Compound #1], the IC50 in assay [1] (setting [3]) was 14000 nM. Besides, the “% Inhibition” value in assay [2] (1 µM) is 22%.
On to `CC(O)(Sc1ccc(Cl)c(Cl)c1)c1cc2cc([N+](=O)[O-])c(C(F)(F)F)cc2[nH]1` (racemic) [compound 254], for which the concentration for half-maximal inhibition (IC50) in assay [1] (setting [3]) was 1020 nM and 920 nM; in assay [2] (rat cytosol), 670 nM. Besides, the “% Inhibition” value in assay [2] (setting [4]) came to 41%.
`CC(O)(Sc1ccccc1)c1cc2cc([N+](=O)[O-])c(C(F)(F)F)cc2[nH]1` (racemic) [compound 258] returned an IC50 in assay [1] (setting [3]) of 2450 nM. Moreover, the “% Inhibition” value in assay [2] (setting [4]) was found to be 35.4%.
`CC(O)(Sc1ccc(Cl)cc1)c1cc2cc(C#N)c(C(F)(F)F)cc2[nH]1` (racemic) [compound 261] returned an IC50 in assay [1] (setting [3]) of 1460 nM. In assay [2] (setting [4]), the “% Inhibition” value is recorded as 14.05%.
Regarding `CC(O)(c1cc2cc(C#N)c(C(F)(F)F)cc2[nH]1)S(=O)(=O)c1ccc(Cl)cc1` (racemic) [compound 262], the IC50 in assay [1] (setting [3]) is over 10000 nM. For the same molecule, the “% Inhibition” value in assay [2] (setting [4]) is recorded as −8.4%.
As to `CS(=O)(=O)n1c(C2(O)CCN(Cc3ccccc3)CC2)cc2cc(Cl)c(C(F)(F)F)cc21` [Compound #21], the IC50 in assay [1] (setting [3]) was over 10200 nM. Further, the inhibition at 1 µM in assay [2] (setting [4]) is -41.5%.
In the case of `CS(=O)(=O)n1c(C2(O)CCNCC2)cc2cc(Cl)c(C(F)(F)F)cc21` [Compound #23], the IC50 amounted to 54000 nM in assay [1] (setting [3]) and 6000 nM in assay [2] (rat cytosol). For the same molecule, the inhibition at 1 µM in assay [2] (setting [4]) was -1.5%.
In assay [1] (setting [3]), `O=C(c1ccc(Cl)cc1)N1CCC(O)(c2cc3cc(Cl)c(C(F)(F)F)cc3[nH]2)CC1` [Compound #25] had an IC50 of 8800 nM. Further, the inhibition at 1 µM in assay [2] (setting [4]) is -83.5%.
In assay [1] (setting [3]), `CS(=O)(=O)n1c(C2(O)CCN(C(=O)OCc3ccccc3)CC2)cc2cc(Cl)c(C(F)(F)F)cc21` [compound 19] registered an IC50 of over 100000 nM. The inhibition at 1 µM in assay [2] (setting [4]) was -55%.
In assay [1] (setting [3]), `CC(O)(COC(=O)c1ccc(Cl)cc1)c1cc2cc(Cl)c(C(F)(F)F)cc2[nH]1` (stereo not drawn) [compound 62] displayed an IC50 of 325 nM. In addition, the inhibition at 1 µM in assay [2] (setting [4]) was 69%.
Consider `CC(O)(CSc1ccc(F)cc1)c1cc2cc(Cl)c(C(F)(F)F)cc2[nH]1` (stereo not drawn) [compound 83], for which the IC50 in assay [1] (setting [3]) was found to be 160 nM.
In the case of `CC(O)(CSc1ccc(Cl)cc1)c1cc2cc(C#N)c(C(F)(F)F)cc2[nH]1` (stereo not drawn) [compound 96], the IC50 in assay [1] is 1710 nM.
